# The OPERA property sets (Mansouri et al. 2018)
row,SMILES,logP
1,CN(Cc1ccc([N+](=O)[O-])cc1)N=O,0.82
2,CN(Cc1cccc(C(F)(F)F)c1)N=O,1.99
3,COc1cccc(CN(C)N=O)c1,1.6
4,CN(Cc1ccc(Cl)cc1)N=O,2.19
5,Cc1ccc(CN(C)N=O)cc1,2.14
6,Cc1cccc(CN(C)N=O)c1,1.96
7,CN(Cc1ccccc1)N=O,1.55
8,CN(Cc1cccc([N+](=O)[O-])c1)N=O,1.17
9,CN(Cc1cccc(Cl)c1)N=O,1.46
10,CN(Cc1ccc(F)cc1)N=O,1.67
